Laboratory results: the supplement of paper PMC10307832

What was measured:
Experiment in all cases: relative viability (nuclei count vs DMSO), 5 days (fraction); higher = more cells survive
[1] = compound: CC1CC(=O)N(C2=CN=C(N=C2N1C3CCCC3)NC4=C(C=C(C=C4)C(=O)NC5CCN(CC5)C)OC)C [NPK76-II-72-1] + CC(=O)Nc1cccc(-n2c(=O)n(C3CC3)c(=O)c3c(Nc4ccc(I)cc4F)n(C)c(=O)c(C)c32)c1 [Trametinib] (partner 0.02 µM)
In short: (§1)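 Lung cancer cell lines in 1536-well plates were dosed by pin tool the day after seeding, either with one drug alone or with a fixed anchor-drug dose plus five library-drug doses (not always all listed) in √10 steps. After 5 days, cells were fixed and their nuclei stained in one step (final 0.05% Triton X-100, 1% formaldehyde, 1 ug/ml Hoechst), then counted on 4× images. Relative viability is the nuclei count in treated wells divided by that in vehicle wells. Values are medians of duplicate plates.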

BI-2536 + Navitoclax = compound: CC[C@@H]1C(=O)N(C)c2cnc(Nc3ccc(C(=O)NC4CCN(C)CC4)cc3OC)nc2N1C1CCCC1 [BI-2536] + CC1(C)CCC(c2ccc(Cl)cc2)=C(CN2CCN(c3ccc(C(=O)NS(=O)(=O)c4ccc(N[C@H](CCN5CCOCC5)CSc5ccccc5)c(S(=O)(=O)C(F)(F)F)c4)cc3)CC2)C1 [Navitoclax] (partner 0.5 µM)
In short: as §1

BI-2536 = compound: CC[C@@H]1C(=O)N(C)c2cnc(Nc3ccc(C(=O)NC4CCN(C)CC4)cc3OC)nc2N1C1CCCC1 [BI-2536]
In short: (§2)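 In 1536-well plates, lung cancer cell lines rested overnight at 37 °C before five library-drug doses (not always all listed), √10 apart, were pinned onto vehicle-anchored plates. Nuclei were counted with MetaXpress from 4× Hoechst images taken after 5 days without medium change. Viability compares treated-well with vehicle-well nuclei as a median over plates, and plates needed control CV below 25% plus at least one doubling to pass.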

NPK76-II-72-1 = compound: CC1CC(=O)N(C2=CN=C(N=C2N1C3CCCC3)NC4=C(C=C(C=C4)C(=O)NC5CCN(CC5)C)OC)C [NPK76-II-72-1]
In short: as §2

Cell Line	relative viability ([1]; first compound 0.01 µM)	relative viability ([1]; first compound 0.03162 µM)	relative viability ([1]; first compound 0.1 µM)	relative viability ([1]; first compound 0.3162 µM)	relative viability ([1]; first compound 1 µM)	relative viability (BI-2536 + Navitoclax; first compound 0.01 µM)	relative viability (BI-2536 + Navitoclax; first compound 0.03162 µM)	relative viability (BI-2536 + Navitoclax; first compound 0.1 µM)	relative viability (BI-2536 + Navitoclax; first compound 0.3162 µM)	relative viability (BI-2536 + Navitoclax; first compound 1 µM)	relative viability (BI-2536; 0.01 µM)	relative viability (BI-2536; 0.03162 µM)	relative viability (BI-2536; 0.1 µM)	relative viability (BI-2536; 0.3162 µM)	relative viability (BI-2536; 1 µM)	relative viability (NPK76-II-72-1; 0.01 µM)	relative viability (NPK76-II-72-1; 0.03162 µM)	relative viability (NPK76-II-72-1; 0.1 µM)	relative viability (NPK76-II-72-1; 0.3162 µM)	relative viability (NPK76-II-72-1; 1 µM)
SK-LU-1	0.454	0.508	0.526	0.437	0.473	0.738	0.894	0.52	0.118	0.139	1.03	0.989	0.477	0.248	0.225	0.987	1.02	1.02	0.947	1.01
PC-3 [JPC-3]	0.701	–	0.705	0.737	0.703	0.849	0.774	0.743	0.319	0.212	1.07	0.99	0.751	0.281	0.282	1.02	1.11	0.945	1.08	1.07
EMC-BAC-2	0.836	0.955	0.845	0.81	0.952	1.27	1.24	1.21	0.17	0.134	0.979	1.03	0.505	0.238	0.246	0.916	0.96	0.981	0.921	1.05
LK-2	0.767	0.65	0.584	0.609	0.69	0.798	0.553	0.387	0.118	0.172	0.832	0.887	0.623	0.128	0.207	0.961	0.912	0.962	0.832	1.01
NCI-H1299	–	–	–	–	–	1.08	1.1	1.05	0.315	0.254	0.968	1.05	0.924	0.291	0.266	1	1.03	1.01	1.01	1.02
LCLC-103H	–	0.673	0.556	0.709	0.693	–	–	–	–	–	0.997	1.05	0.961	0.491	0.197	0.984	1.01	0.896	1.05	0.952
ABC-1	–	–	–	–	–	–	–	–	–	–	0.892	0.879	0.212	0.395	0.265	0.759	0.886	0.686	0.955	0.855
NCI-H650	1.14	0.996	0.957	0.997	1.01	–	–	–	–	–	0.819	0.821	0.589	0.198	0.131	0.971	0.946	0.927	0.734	1.01
NCI-H1648	0.503	0.504	0.369	0.384	0.494	–	–	–	–	–	0.98	0.826	0.63	0.301	0.267	0.861	0.943	0.537	0.719	0.773
NCI-H661	0.622	0.685	0.589	0.526	0.611	–	–	–	–	–	1.02	0.95	0.503	0.327	0.334	0.966	1.01	0.97	0.794	1.01
NCI-H1563	–	–	–	–	–	–	–	–	–	–	0.985	1.16	0.924	0.733	0.573	0.949	0.978	1	0.94	0.982
A549	–	–	–	–	–	1.38	1.07	0.0366	0.0423	0.0248	0.987	0.936	0.628	0.0475	0.0473	0.937	1.05	1.01	1	1.03
NCI-H522	0.811	0.619	0.747	–	0.79	–	–	–	–	–	0.862	0.969	0.639	0.374	0.332	0.922	0.821	0.892	0.929	1.1
NCI-H1623	–	–	–	–	–	–	–	–	–	–	0.956	0.91	0.852	0.462	0.28	0.919	0.953	0.901	0.852	0.932
SW 900	0.871	1.07	0.66	0.587	1.11	–	–	–	–	–	0.883	0.937	0.696	0.244	0.205	0.786	0.757	0.796	0.936	0.947
IA-LM	–	–	–	–	–	0.753	0.559	0.0092	0.0147	0.0245	0.954	0.912	0.649	0.0924	0.061	0.871	0.836	0.919	0.842	1.14
NCI-H358	0.14	0.145	0.204	–	0.151	–	–	–	–	–	0.981	0.744	0.204	0.118	0.136	0.9	0.976	1.01	–	1.05
EBC-1	–	–	–	–	–	0.327	0.28	0.171	0.173	0.159	1.04	0.804	0.432	0.224	0.202	0.917	1.02	0.94	0.984	1.07
